Laboratory results from EPA's ToxValDB 9.5 (doi:10.2903/j.efsa.2015.4308).

How the values were obtained:
[1] = system: Anas platyrhynchos
[2] = system: Bibionidae; settings: chronic/long-term
[3] = system: Canidae; settings: chronic; duration: 1 years; oral; F; Dog Other; body weight
[4] = system: Daphnia magna; settings: chronic/long-term; duration: 21 days; reproduction
[5] = system: Folsomia candida; settings: chronic/long-term
[6] = system: Hypoaspis aculeifer; settings: chronic/long-term
[7] = system: Oncorhynchus mykiss; settings: acute; duration: 96 hours; mortality
[8] = system: Oryctolagus sp.; settings: reproduction developmental; body weight
[9] = system: Pimephales promelas; settings: chronic/long-term; duration: 34 days; growth
[10] = system: Rattus norvegicus
[11] = system: Tagia sp.
[12] = system: Aphidius rhopalosiphi; assay: LR50; higher = less toxic; settings: not reported; mortality
[13] = system: Typhlodromus pyri; assay: LR50; higher = less toxic; settings: not reported; mortality

[Br-].[Br-].c1cc[n+]2c(c1)-c1cccc[n+]1CC2 [Diquat dibromide]
LD50 ([1]; acute, oral, unspecified, mortality): 71 mg/kg-day | NOAEL ([1]; reproductive): 0.5 mg/kg-day | NOEC ([2]; duration: 20 days): 100 mg/kg | NOEC ([2]; duration: 28 days): 1270 µg/L | NOAEL [3]: 0.5 mg/kg-day | NOEC [4]: 125 µg/L | NOEC [5]: 9.38 mg/kg | NOEC [6]: 50 mg/kg | LC50 [7]: 6.1 µg/mL | NOAEL [8]: 1 mg/kg-day | NOEC [9]: 120 µg/L | LD50 ([10]; acute, M, mortality): 214 mg/kg-day | NOAEL ([10]; chronic, duration: 2 years, ophthalmoscopic examination): 0.2 mg/kg-day | NOAEL ([10]; reproduction developmental): 0.2 mg/kg-day | LC50 ([11]; acute, duration: 14 days, mortality): 94.3 mg/kg | NOEC ([11]; chronic/long-term, duration: 8 weeks): 37 mg/kg | LR50 [12]: 3.2 g/ha | LR50 [13]: 2.9 g/ha
